Paper PMC10020352 (Frontiers in Pharmacology, 2023)
Like-named read-outs stand apart in the source and are kept apart here. Where a SMILES comes first, the peptide text is derived from it. [ ]: non-standard residue; d: D form. Phe(4-NO2) = N[C@@H](Cc1ccc([N+](=O)[O-])cc1)C(=O)O; Phe(4-Cl) = N[C@@H](Cc1ccc(Cl)cc1)C(=O)O; NMeR = CN[C@@H](CCCNC(=N)N)C(=O)O; Aoc = NCCCCCCCC(=O)O; Sar = CNCC(=O)O

Key:
[1] = biological target: T1, bovine pancreatic trypsin (Bos taurus, UniProt P00760); assay: Metabolic stability in trypsin; type: in vitro ADME; details: bovine pancreatic trypsin 2.5 μg/mL, pH 8-8.5, 37°C, peptide 100 μM; read-out: Stability (t1/2) Trypsin
T1 sequence (P00760 24-246): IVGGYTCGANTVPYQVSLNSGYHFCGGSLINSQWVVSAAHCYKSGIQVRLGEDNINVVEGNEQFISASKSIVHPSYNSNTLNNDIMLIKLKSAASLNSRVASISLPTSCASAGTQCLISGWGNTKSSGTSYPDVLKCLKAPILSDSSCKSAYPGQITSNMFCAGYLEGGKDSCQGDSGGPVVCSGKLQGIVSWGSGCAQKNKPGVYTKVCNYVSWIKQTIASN
Protocol: (§1) Whole blood was collected in-house from adult mixed-gender Wistar rats (RRID: RGD_150520162), and plasma was prepared in 0.2% EDTA as per standard practice. Peptides (final 100 μM) were incubated with pooled rat plasma at 37°C. Samples were collected at different time intervals 0, 5, 10, 15, 30, 60, and 120 min. At each time point, collected samples were immediately added to three volumes of cold ACN. This mixture was vortexed for 30 s and then centrifuged at room temperature (13 K rpm, 5 min). The supernatant was taken and directly placed in glass HPLC vials for LCMS analysis. The protocol for the trypsin stability assay was as for the plasma stability assay except for the […] (bovine pancreatic trypsin 2.5 μg/mL in NH4HCO3 buffer, approx. pH 8–8.5, 37°C).
(§2) Relative concentrations of each peptide from stability assays in plasma or trypsin were analysed using an Agilent binary LC system consisting of an Agilent 1290 Infinity LC pump, Agilent 1,290 auto-sampler coupled with Triple Quad Mass-Spectrometer (MS, model 6460, Agilent Technologies). A bidentate C18 HPLC column (Cogent, 100 Å, […]) with a binary solvent gradient composed of Solvent: A 0.1%v/v formic acid in MQ water and Solvent B: 0.1% v/v formic acid in ACN was used for the separation. The MS parameters were optimised for all compounds to obtain the highest signal in positive Total Ion Current (TIC) mode. Data were analysed using a combination of Microsoft Excel and GraphPad Prism software packages. Data was normalised to time point zero (immediately after compound addition) and expressed in percentages from t = 0. Half-lives were calculated in GraphPad Prism software (v8.3).

[2] = biological target: T2, KOP receptor (Homo sapiens, UniProt P41145); type: cell-based
[3] = biological target: T3, DOP receptor (Homo sapiens, UniProt P41143); assay: cell-based
T3 construct: expressed in transfected cells; host or cells: HEK293

[4] = tested on: pERK1/2 in HEK293-KOP receptor cells; type: cell-based
[5] = biological target: T4, MOP receptor (Homo sapiens, UniProt P35372); assay: cell-based
T4 construct: expressed in transfected cells; host or cells: HEK293

[6] = Metabolic stability in rat plasma; type: in vitro ADME; details: pooled rat plasma, 37°C, peptide 100 μM; for half-life: rat, plasma, read-out: Stability (t1/2) Plasma
Protocol: as §1, §2

[7] = tested on: FCA model of inflammatory nociception; details: rat
[8] = biological target: T2, KOP receptor; assay: biochemical; type: binding
[9] = biological target: T2, KOP receptor; assay: cell-based; type: cell-based

T3 sequence (P41143 whole entry): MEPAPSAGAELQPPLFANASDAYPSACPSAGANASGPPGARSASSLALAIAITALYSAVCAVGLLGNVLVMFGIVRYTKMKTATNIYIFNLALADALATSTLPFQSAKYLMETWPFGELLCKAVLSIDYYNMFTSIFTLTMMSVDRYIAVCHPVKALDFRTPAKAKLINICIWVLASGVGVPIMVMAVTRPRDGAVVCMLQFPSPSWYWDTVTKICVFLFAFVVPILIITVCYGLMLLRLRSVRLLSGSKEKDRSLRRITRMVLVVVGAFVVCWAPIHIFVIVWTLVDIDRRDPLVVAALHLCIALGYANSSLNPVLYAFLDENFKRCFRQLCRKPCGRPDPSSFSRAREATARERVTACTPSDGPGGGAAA
T4 sequence (P35372 whole entry): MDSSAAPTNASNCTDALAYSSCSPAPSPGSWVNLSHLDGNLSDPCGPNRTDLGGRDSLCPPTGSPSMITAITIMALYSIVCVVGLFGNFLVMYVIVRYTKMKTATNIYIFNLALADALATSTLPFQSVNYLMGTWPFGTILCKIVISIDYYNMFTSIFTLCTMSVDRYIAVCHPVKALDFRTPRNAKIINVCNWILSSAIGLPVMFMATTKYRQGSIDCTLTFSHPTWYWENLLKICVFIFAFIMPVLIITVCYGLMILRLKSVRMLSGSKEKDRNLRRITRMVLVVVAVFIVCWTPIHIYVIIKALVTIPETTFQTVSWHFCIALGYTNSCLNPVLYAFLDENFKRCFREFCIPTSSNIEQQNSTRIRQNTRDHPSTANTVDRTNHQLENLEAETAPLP
T2 sequence (P41145 whole entry): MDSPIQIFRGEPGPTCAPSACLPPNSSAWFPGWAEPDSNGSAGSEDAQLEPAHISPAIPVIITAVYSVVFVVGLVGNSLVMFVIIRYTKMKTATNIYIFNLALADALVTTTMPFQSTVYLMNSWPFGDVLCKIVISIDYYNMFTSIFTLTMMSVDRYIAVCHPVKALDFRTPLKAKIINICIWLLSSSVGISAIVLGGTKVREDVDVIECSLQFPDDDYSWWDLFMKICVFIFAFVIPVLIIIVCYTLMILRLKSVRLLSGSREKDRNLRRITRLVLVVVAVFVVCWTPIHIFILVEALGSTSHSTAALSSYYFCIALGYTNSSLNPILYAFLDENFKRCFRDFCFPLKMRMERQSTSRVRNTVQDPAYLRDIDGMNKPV

Compound: CC(C)C[C@H](NC(=O)[C@H](Cc1ccccc1)NC(=O)CNC(=O)CNC(=O)[C@@H](N)Cc1ccc(O)cc1)C(=O)N[C@@H](CCCNC(=N)N)C(=O)N[C@@H](CCCNC(=N)N)C(=O)O [Dyn 1-7, reference compound]
- half-life [1]: < 1 min
- KOP receptor desensitisation (maximal cAMP effect after pre-treatment) [2]: no discernible desensitisation
- EC50 ([3]; read-out: Activity (EC50) DOP): 870 nM
- bias factor β (cAMP versus pERK) [4]: bias towards pERK
- pERK1/2 expression / activity [4]: time and concentration-dependent pERK expression
- EC50 ([5]; read-out: Activity (EC50) MOP): 3740 nM
- half-life [6]: 8.1 min

Compound: CC(C)C[C@H](NC(=O)[C@H](Cc1ccc([N+](=O)[O-])cc1)NC(=O)CN(C)C(=O)[C@@H](N)Cc1ccc(O)cc1)C(=O)N[C@@H](CCCNC(=N)N)C(=O)N[C@H](CCCNC(=N)N)C(N)=O [KA204] (H-Y[Sar][Phe(4-NO2)]LR[dR]-NH2)
- half-life [1]: 15.4 min
- EC50 [3]: > 10000 nM
- EC50 [5]: > 10000 nM
- paw withdrawal threshold in the contralateral (uninflamed, untreated) paw ([7]; in vivo): not observed
- IC50 [8]: 30.2 nM
- Ki [8]: 2.8 nM
- IC50 ([8]; IC50): 30.2 nM
- Stability (t1/2) Plasma [6]: 71 min
- half-life [6]: > 60 min
- EC50 [9]: 7.5 nM
- selectivity for KOP receptor over MOP receptor and DOP receptor [9]: > 1000 fold

Compound: CC(C)C[C@H](NC(=O)[C@H](Cc1ccc(Cl)cc1)NC(=O)CN(C)C(=O)[C@@H](N)Cc1ccc(O)cc1)C(=O)N[C@@H](CCCNC(=N)N)C(=O)N[C@H](CCCNC(=N)N)C(=O)NCCCCCCCC(N)=O [KA305] (H-Y[Sar][Phe(4-Cl)]LR[dR][Aoc]-NH2)
- half-life [1]: 4.9 min
- KOP receptor desensitisation (maximal cAMP effect after pre-treatment) [2]: modest but significant desensitisation
- bias factor β (cAMP versus pERK) [4]: bias towards cAMP
- pERK1/2 expression / activity [4]: influenced pERK induction at higher concentrations
- overall efficacy (AUC of in vivo effect) [7]: significantly better efficacy than U50488H
- Efficacy Index (Ie) ([7]; in vivo): statistically significant higher Ie over morphine
- antinociceptive activity (paw withdrawal threshold) ([7]; in vivo): showed antinociceptive activity
- effect of naloxone on peptide-induced antinociception ([7]; in vivo): blocked by pre-administration of naloxone
- effect on oedema of the affected paw ([7]; in vivo): without effecting oedema
- paw withdrawal threshold in the contralateral (uninflamed, untreated) paw ([7]; in vivo): not observed
- Log IC50 [8]: -7.14
- binding affinity to KOP receptor (in words) [8]: strong binders
- IC50 ([8]; read-out: IC50): 72.6 nM
- inhibition of peptide cAMP modulation by naloxone [9]: significantly blocked

Compound: CC(C)C[C@H](NC(=O)[C@H](Cc1ccc([N+](=O)[O-])cc1)NC(=O)CN(C)C(=O)[C@@H](N)Cc1ccc(O)cc1)C(=O)N(C)[C@@H](CCCNC(=N)N)C(=O)N(C)[C@@H](CCCNC(=N)N)C(N)=O [KA311] (H-Y[Sar][Phe(4-NO2)]L[NMeR][NMeR]-NH2)
- half-life [1]: > 1000 min
- EC50 [3]: > 10000 nM
- EC50 [5]: > 10000 nM
- paw withdrawal threshold in the contralateral (uninflamed, untreated) paw ([7]; in vivo): not observed
- Ki [8]: 180 nM
- IC50 ([8]; IC50): 1950 nM
- EC50 [9]: 31 nM
- selectivity for KOP receptor over MOP receptor and DOP receptor [9]: > 1000 fold
